Test results reported in ChEMBL document CHEMBL5465560, “Selectivity Literature for EUbOPEN Chemogenomic Library” (2024).

Legend:
[1] = target: T1, Histone-lysine N-methyltransferase NSD3 (Homo sapiens) (UniProt Q9BZ95); settings: at 10 µM
T1 sequence (whole entry): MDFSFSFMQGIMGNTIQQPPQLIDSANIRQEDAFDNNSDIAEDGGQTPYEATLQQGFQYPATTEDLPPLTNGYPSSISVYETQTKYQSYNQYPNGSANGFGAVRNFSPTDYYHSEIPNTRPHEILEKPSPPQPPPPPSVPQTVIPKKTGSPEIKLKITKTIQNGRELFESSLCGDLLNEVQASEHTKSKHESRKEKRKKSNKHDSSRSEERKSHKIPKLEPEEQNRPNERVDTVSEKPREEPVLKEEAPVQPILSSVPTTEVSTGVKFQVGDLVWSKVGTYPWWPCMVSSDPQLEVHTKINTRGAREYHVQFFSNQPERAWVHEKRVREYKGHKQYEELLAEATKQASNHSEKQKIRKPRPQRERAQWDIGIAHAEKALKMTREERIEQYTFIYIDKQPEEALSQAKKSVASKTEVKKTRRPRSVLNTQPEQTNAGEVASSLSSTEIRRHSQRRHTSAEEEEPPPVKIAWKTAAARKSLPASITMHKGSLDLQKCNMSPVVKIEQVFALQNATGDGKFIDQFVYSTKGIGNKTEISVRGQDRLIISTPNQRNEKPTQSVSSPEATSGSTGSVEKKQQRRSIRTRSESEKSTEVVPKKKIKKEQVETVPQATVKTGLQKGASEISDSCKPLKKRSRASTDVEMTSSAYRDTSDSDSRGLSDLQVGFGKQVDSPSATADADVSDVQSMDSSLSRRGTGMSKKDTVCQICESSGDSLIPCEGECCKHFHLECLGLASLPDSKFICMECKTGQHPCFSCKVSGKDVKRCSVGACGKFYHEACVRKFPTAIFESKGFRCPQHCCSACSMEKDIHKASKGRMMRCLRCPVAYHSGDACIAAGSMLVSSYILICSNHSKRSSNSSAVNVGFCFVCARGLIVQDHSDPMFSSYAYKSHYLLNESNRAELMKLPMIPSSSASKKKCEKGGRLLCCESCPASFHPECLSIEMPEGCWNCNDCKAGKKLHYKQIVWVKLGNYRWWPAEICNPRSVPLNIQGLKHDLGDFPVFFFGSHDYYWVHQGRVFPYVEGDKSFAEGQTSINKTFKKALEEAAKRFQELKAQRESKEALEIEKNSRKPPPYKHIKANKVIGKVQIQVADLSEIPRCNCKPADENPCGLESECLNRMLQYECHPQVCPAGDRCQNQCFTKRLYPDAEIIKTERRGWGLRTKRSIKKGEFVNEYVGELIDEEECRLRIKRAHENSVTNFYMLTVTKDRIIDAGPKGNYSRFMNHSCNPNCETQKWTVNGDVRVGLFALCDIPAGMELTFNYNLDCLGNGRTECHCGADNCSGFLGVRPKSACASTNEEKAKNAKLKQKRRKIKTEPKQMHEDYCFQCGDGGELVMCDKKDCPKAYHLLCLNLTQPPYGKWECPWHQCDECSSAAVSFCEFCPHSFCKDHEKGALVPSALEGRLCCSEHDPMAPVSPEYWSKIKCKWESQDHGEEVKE

[2] = target: Nociceptin receptor (Homo sapiens) (UniProt P41146); experiment: Selectivity interaction (Eurofins CEREP Diversity Profile (receptors and ion channels)) EUB0000279b OPRL1; settings: at 10 µM
Nociceptin receptor (Homo sapiens), sequence (P41146 whole entry): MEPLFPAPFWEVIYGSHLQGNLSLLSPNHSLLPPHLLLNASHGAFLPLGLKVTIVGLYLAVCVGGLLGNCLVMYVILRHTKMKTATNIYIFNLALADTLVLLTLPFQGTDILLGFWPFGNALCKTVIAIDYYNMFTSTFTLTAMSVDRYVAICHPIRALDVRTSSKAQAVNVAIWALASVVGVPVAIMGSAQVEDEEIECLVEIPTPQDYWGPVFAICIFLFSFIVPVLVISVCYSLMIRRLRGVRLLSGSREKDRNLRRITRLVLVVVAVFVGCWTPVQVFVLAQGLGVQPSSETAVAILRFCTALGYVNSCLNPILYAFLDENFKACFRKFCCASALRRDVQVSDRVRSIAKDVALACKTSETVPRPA

[3] = target: RAC-beta serine/threonine-protein kinase (Homo sapiens) (UniProt P31751); experiment: Selectivity interaction (KinomeScan (DiscoverX)) EUB0001049a AKT2; settings: at 1 µM
RAC-beta serine/threonine-protein kinase (Homo sapiens), sequence (P31751 whole entry): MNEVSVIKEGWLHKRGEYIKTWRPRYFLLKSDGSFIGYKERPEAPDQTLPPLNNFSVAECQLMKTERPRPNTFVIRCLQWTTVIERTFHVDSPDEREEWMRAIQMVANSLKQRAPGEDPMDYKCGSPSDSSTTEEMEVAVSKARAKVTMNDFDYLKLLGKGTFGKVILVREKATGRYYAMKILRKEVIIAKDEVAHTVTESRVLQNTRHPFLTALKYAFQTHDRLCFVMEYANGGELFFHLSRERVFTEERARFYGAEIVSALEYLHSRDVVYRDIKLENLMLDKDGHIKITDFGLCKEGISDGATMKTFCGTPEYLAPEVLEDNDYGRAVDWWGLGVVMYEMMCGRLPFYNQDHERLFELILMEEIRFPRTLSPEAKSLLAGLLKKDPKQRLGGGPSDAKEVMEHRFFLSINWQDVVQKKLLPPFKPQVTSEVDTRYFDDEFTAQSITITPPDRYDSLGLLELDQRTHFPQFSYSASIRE

[4] = target: Serine/threonine-protein kinase MARK2 (Homo sapiens) (UniProt Q7KZI7); experiment: Selectivity interaction (ActivX KiNativ screen (kinase selectivity in THP-1 cell lysates)) EUB0000639a MARK2; format: subcellular; settings: lysate, at 5 µM
Serine/threonine-protein kinase MARK2 (Homo sapiens), sequence (Q7KZI7 whole entry): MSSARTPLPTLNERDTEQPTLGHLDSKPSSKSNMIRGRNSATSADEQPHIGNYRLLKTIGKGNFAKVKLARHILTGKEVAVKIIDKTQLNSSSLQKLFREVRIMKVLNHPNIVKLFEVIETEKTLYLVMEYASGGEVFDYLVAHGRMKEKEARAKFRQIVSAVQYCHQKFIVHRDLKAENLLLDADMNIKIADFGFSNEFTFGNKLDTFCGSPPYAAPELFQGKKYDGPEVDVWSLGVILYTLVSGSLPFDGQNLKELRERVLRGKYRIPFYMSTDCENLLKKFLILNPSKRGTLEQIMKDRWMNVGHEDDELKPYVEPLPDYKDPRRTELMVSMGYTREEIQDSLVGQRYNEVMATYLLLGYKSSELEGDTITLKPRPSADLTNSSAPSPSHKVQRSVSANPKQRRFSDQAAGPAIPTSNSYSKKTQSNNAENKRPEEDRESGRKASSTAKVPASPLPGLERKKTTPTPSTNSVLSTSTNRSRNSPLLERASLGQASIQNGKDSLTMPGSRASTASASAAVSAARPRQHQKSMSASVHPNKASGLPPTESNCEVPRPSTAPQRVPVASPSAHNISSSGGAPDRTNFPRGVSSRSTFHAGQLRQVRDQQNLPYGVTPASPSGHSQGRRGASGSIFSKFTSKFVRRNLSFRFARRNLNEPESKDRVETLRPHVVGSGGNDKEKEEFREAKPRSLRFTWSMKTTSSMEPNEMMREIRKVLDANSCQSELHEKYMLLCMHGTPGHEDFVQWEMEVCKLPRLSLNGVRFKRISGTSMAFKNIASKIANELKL

[5] = target: T2, Mitogen-activated protein kinase kinase kinase 13 (Homo sapiens) (UniProt O43283); experiment: Selectivity interaction (KinomeScan (DiscoverX)) EUB0000655a MAP3K13; settings: at 10 µM
T2 sequence (whole entry): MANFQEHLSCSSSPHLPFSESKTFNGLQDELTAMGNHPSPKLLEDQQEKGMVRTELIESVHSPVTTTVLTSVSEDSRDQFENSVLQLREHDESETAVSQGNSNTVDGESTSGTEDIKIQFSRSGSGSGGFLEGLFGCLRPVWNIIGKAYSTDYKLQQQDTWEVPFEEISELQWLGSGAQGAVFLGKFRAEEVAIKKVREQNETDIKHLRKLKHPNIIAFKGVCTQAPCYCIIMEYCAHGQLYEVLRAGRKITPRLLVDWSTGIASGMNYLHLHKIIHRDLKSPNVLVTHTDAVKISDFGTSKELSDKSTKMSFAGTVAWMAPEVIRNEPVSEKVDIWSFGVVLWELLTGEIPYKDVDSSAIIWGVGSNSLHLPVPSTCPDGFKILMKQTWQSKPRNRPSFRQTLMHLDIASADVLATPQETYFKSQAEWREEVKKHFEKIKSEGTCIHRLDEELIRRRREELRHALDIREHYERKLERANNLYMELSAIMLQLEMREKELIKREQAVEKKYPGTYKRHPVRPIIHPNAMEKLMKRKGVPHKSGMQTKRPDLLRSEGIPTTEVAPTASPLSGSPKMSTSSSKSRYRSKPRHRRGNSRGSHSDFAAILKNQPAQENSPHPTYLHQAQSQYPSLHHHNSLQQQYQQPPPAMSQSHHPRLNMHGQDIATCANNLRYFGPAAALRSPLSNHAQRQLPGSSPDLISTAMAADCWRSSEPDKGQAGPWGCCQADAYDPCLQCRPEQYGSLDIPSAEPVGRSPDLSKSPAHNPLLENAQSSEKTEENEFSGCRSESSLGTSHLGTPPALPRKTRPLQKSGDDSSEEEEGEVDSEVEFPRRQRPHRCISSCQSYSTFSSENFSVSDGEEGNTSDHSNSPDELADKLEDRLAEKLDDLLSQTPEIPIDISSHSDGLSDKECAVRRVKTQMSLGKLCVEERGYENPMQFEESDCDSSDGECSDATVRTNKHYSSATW

`CNCCN1CCC(c2cc(CN(C)C(=O)c3cccc(Oc4ccccc4)c3)ccn2)CC1` was tested, and the % activity [1] was > 90%.

`CC(=O)c1cc(-c2ccccc2OCC2CC2)c2ncccn12` gave a % of control [2] of 88%.

`COc1cc(Nc2nc(C)cc(-c3cnn4nc(OC)ccc34)n2)cc(C(F)(F)F)c1` was tested, and the % of control [3] was 100%.

Compound `CC[C@@H]1[C@H](F)C(=O)N[C@@H]1COc1nccc2cc(C(N)=O)c(OC)cc12` [ZIMLOVISERTIB] has a % of inhibition [4] of 45.6%.

For `CN(C)CCOc1ccc(-c2nc(-c3ccncc3)c(-c3ccc4c(c3)CC/C4=N\O)[nH]2)cc1`, the % of control [5] was 100%.
